According to patent US4315928A, “N-Aminosulfenyl carbamate compounds, compositions and use” (priority 1975, dated 1982):

Assays:
[1] = test system: bean aphid (Aphis fabae Scop.); assay: whole plant or invertebrate; settings: foliar, 24 h, read-out: Insect Toxicity, % Kill at 250 ppm, BA
[2] = test system: southern armyworm (Prodenia eridania, (Cram.)); assay: whole plant or invertebrate; settings: Spodoptera eridania, 72 h, read-out: Insect Toxicity, % Kill at 250 ppm, SAW
tomato = assay: Phytotoxicity Test, tomato; assay type: in vivo; set-up: key: A rating of 1 indicates no perceptible injury; ratings of 2, 3 and 4 indicate intermediate degrees of injury; ratings of 2, 3 and 4 indicate intermediate degrees of injury; ratings of 2, 3 and 4 indicate intermediate degrees of injury; 5 indicates the plant was dead; settings: ten days
Method: (§1) Suspensions of the test compounds were prepared by dissolving one gram of compound in 50 milliliters of acetone in which had been dissolved 0.1 gram (10 percent of the weight of compound) of an alkylphenoxy polyethoxyethanol surfactant, as an emulsifying or dispersing agent. The resulting solution was mixed into 150 milliliters of water to give roughly 200 milliliters of a suspension containing the compound in finely divided form. The thus-prepared stock suspension contained 0.5 percent by weight of compound. The test concentrations in parts per million by weight employed in the tests described hereinbelow were obtained by appropriate dilutions of the stock suspension with water. The test procedures were as follows:
(§2) Experiments were also conducted to determine the phytotoxicity of representative compositions with respect to healthy fresh plants. Solutions of the compounds were prepared as described above to provide a concentration of 2500 parts per million of the test compound. The test plants were sprayed in accordance with the procedure described above for the Mite Foliage Spray Test so as to deliver approximately 100 milliliters of test solution to the leaves of each plant tested. The sprayed plants and controls were set aside for approximately one hour to allow the solutions to dry and were then placed in the greenhouse. After ten days the plants were visually inspected to determine the extent of foliage injury. A rating of 1 indicates no perceptible injury; 5 indicates the plant was dead and ratings of 2, 3 and 4 indicate intermediate degrees of injury based upon the number and extent to which leaves were injured.

corn = assay: Phytotoxicity Test, corn; assay type: in vivo; set-up: key: A rating of 1 indicates no perceptible injury; ratings of 2, 3 and 4 indicate intermediate degrees of injury; ratings of 2, 3 and 4 indicate intermediate degrees of injury; ratings of 2, 3 and 4 indicate intermediate degrees of injury; 5 indicates the plant was dead; settings: ten days
Method: as §1, §2

[3] = test system: house flies (Musca domestica, L.); assay: whole plant or invertebrate; settings: po, 24 h, read-out: Insect Toxicity, % Kill at 250 ppm, HF
rat = assay: in vivo; settings: oral, statement on Table I
Method: (§3) These compositions were also evaluated to determine their peroral toxicity to mammals by conventional methods. The animal selected for this experiment was the rat.

in vivo = settings: rat, in vivo, po
Method: as §3

[4] = test system: two-spotted mite (Tetranychus urticae Koch); assay: whole plant or invertebrate; settings: foliar, 144 h, read-out: Insect Toxicity, % Kill at 250 ppm, TSM
soybeans = assay: Phytotoxicity Test, soybeans; assay type: in vivo; set-up: key: A rating of 1 indicates no perceptible injury; ratings of 2, 3 and 4 indicate intermediate degrees of injury; ratings of 2, 3 and 4 indicate intermediate degrees of injury; ratings of 2, 3 and 4 indicate intermediate degrees of injury; 5 indicates the plant was dead; settings: ten days
Method: as §1, §2

cotton = assay: Phytotoxicity Test, cotton; assay type: in vivo; set-up: key: A rating of 1 indicates no perceptible injury; ratings of 2, 3 and 4 indicate intermediate degrees of injury; ratings of 2, 3 and 4 indicate intermediate degrees of injury; ratings of 2, 3 and 4 indicate intermediate degrees of injury; 5 indicates the plant was dead; settings: ten days
Method: as §1, §2

green beans = assay: Phytotoxicity Test, green beans; assay type: in vivo; set-up: key: A rating of 1 indicates no perceptible injury; ratings of 2, 3 and 4 indicate intermediate degrees of injury; ratings of 2, 3 and 4 indicate intermediate degrees of injury; ratings of 2, 3 and 4 indicate intermediate degrees of injury; 5 indicates the plant was dead; settings: ten days
Method: as §1, §2

[5] = test system: Mexican bean beetle (Epilachna varivestis, Muls.); assay: whole plant or invertebrate; settings: 72 h, read-out: Insect Toxicity, % Kill at 250 ppm, MBB

Row | SMILES | mortality at 250 ppm [1] | mortality at 250 ppm [2] | Crop Phytotoxicity, Injury Rating at 2500 ppm, TOM (tomato) | Crop Phytotoxicity, Injury Rating at 2500 ppm, CN (corn) | mortality at 250 ppm [3] | mammalian toxicity (in words) (rat) | LD50 (in vivo) | mortality at 250 ppm [4] | Crop Phytotoxicity, Injury Rating at 2500 ppm, SOYBN. (soybeans) | Crop Phytotoxicity, Injury Rating at 2500 ppm, COT. (cotton) | Crop Phytotoxicity, Injury Rating at 2500 ppm, GB (green beans) | mortality at 250 ppm [5]
1 | CCCCN(CCCC)SN(C)C(=O)ON=C(C)SC [Compound 28, S-Methyl N-[N'-Methyl-N'-(Di-n-butylaminosulfenyl)Carbamoyloxy]-Thioacetimidate] | 100% | 100% | 1 | 1 | 100% | extremely low mammalian toxicity | 317 mg/kg | 50% | 1 | 1 | 1 | 100%
2 | CC(=NOC(=O)N(C)SN(C)C)SC(C)C [Compound 24, S-Isopropyl-N-[N'-Methyl-N'-(Dimethylaminosulfenyl)carbamoloxy]thioacetimidate] | 100% | 100% | 2 | 1 | 100% | – | 28.3 mg/kg | 100% | 3 | 2 | 2 | 100%
3 | CN(SN1CCOCC1)C(=O)ON=C1SCC(=O)NC1(C)C [Compound 16, 3,3-Dimethyl-2-N-[N'-Methyl-N'-(4-Morpholinosulfenyl)Carbamoyloxy]imino-5-Oxo-Perhydro-1,4-Thiazine] | 100% | 100% | 1 | 1 | 100% | – | – | 100% | 1 | 1 | 1 | 100%
4 | CSC(C)=NOC(=O)N(C)SN1CCOCC1 [Compound 3, S-Methyl N-[N'-Methyl-N'-(4-Morpholinosulfenyl)carbamoyloxy]-thioacetimidate] | – | – | 1 | 1 | – | extremely low mammalian toxicity | – | – | 1 | 1 | 1 | –
5 | CC(=NOC(=O)N(C)SN1CCOCC1)SCCC#N [Compound 8, S-(2-Cyanoethyl)-N-[N'-Methyl-N'-(4-Morpholinosulfenyl)carbamoyloxy]thioacetimidate] | 100% | 100% | 1 | 1 | 100% | – | 22 mg/kg | 100% | 1 | 1 | 1 | 100%
6 | CSC(C)=NOC(=O)N(SN1CCOCC1)C(C)C [Compound 14, S-Methyl-N-[N'-Isopropyl-N'-(4-Morpholinosulfenyl)Carbamoyloxy]Thioacetimidate] | 100% | 0% | 1 | 1 | 0% | – | – | 0% | 1 | 1 | 1 | 0%
7 | CN(SN1CCOCC1)C(=O)ON=C1CSCCS1 [Compound 5, 2-N-[N'-Methyl-N'-(4-Morpholinosulfenyl)Carbamoyloxy]imino-1,4-Dithiane] | 100% | 100% | 1 | 1 | 100% | – | 19.8 mg/kg | 100% | 1 | 1 | 1 | 100%
8 | CC1OCSC1=NOC(=O)N(C)SN1CCOCC1 (centres unmarked) [Compound 9, 5-Methyl-4-N-[N'-Methyl-N'-(4-Morpholinosulfenyl)carbamoyloxy]imino-1,3-Oxathiolane] | 100% | 100% | 2 | 1 | 100% | – | 16 mg/kg | 100% | 2 | 1 | 1 | 100%
9 | CSC(C)(C)C=NOC(=O)N(C)SN1CCOCC1 [Compound 6, 2-Methyl-2-(Methylthio)propionaldehyde O-[N-Methyl-N-(4-Morpholinosulfenyl)Carbamoyl]oxime] | 100% | 10% | 1 | 1 | 100% | – | 1.2 mg/kg | 100% | 1 | 1 | 1 | 0%
10 | CN(C)SN(C)C(=O)ON=C1CSCCS1 [Compound 23, 2-N-[N'-Methyl-N'-(Dimethylaminosulfenyl)carbamoyloxy]imino-1,4-Dithiane] | 100% | 100% | 1 | 1 | 100% | – | 15 mg/kg | 100% | 1 | 2 | 1 | 100%
11 | CC(=NOC(=O)N(C)SN1CCOCC1)SC(C)C [Compound 7, S-Isopropyl N-[N'-Methyl-N'-(4-Morpholinosulfenyl)carbamoyloxy]thioacetimidate] | 100% | 100% | 1 | 1 | 100% | – | 28.1 mg/kg | 100% | 1 | 1 | 2 | 100%
12 | CN(SN1CCOCC1)C(=O)ON=CC(C)(C)C#N [Compound 10, 2-Cyano-2-Methylpropionaldehyde O-[N-Methyl-N-(4-Morpholinosulfenyl)Carbamoyl]oxime] | 100% | 100% | 1 | 1 | 100% | – | – | 100% | 1 | 3 | 1 | 100%
